Data on 1 compound can be found in EP4729529A1, “PREPARATION OF PEPTIDE INHIBITOR OF INTERLEUKIN-23 RECEPTOR AND USE THEREOF” (Xizang Haisco Pharmaceutical Co., Ltd., priority 2023, dated 2024).

A short description of series [1]: Test of stability in plasma, human. The class given is in vitro ADME. Particulars: read-out: Residual rate% at 37°C for 6 h. As for the experimental part:
5. Test of stability in plasma
In this experiment, plasmas of five species, including human, monkey, dog, rat, and mouse, were used to evaluate the stability in plasma of Compound 7.
A plasma sample was prepared at a concentration level of 1000 ng/mL, and dispensed into EP tubes at time points 0 h and 6 h. Acetonitrile solution containing an internal standard was added directly to the 0 h sample; and the 6 h sample was placed at 37°C for the corresponding time, and then added with an acetonitrile solution containing internal standard. The concentration of the test compound in the sample was measured by the LC-MS/MS method, and the residual rate was calculated from the ratio of the peak areas of the test compound to the internal standard in the time point sample and the 0 h sample.
Experimental results: At the concentration level of 1000 ng/mL under the test conditions, the residual rates of the test Compounds were shown in Table 6 below. Table 6. Residual rate% at 37°C for 6 h

The target of series [2] is T1, IL-23R (Homo sapiens, UniProt Q5VWK5).
T1 construct: host or cells: HEK-blue IL23 reporter gene cell line
T1 sequence (Q5VWK5 24-629): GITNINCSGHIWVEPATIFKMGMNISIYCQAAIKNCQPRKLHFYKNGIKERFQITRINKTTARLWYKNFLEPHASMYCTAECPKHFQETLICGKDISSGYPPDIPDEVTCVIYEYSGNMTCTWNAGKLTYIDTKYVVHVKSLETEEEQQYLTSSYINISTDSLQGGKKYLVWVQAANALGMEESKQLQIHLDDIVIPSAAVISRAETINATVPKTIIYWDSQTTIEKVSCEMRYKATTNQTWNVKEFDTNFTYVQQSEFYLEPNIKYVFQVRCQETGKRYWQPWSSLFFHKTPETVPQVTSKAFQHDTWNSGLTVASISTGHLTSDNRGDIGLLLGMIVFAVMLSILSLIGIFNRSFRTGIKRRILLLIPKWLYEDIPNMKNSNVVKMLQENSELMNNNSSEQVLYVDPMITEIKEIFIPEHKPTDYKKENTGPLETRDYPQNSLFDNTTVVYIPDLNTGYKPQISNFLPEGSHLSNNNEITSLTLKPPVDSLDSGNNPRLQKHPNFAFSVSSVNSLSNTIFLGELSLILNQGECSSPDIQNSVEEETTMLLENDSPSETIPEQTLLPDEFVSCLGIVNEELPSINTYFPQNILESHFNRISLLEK
The experiment in a line: IL-23R reporter gene assay (HEK-blue IL23 reporter gene cell line, rhIL23 stimulation). The conditions noted are these: Inhibition of IL-23R, rhIL23 1 ng/mL, 24 hours. The format is cell-based. A digest of the protocol:
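HEK-blue IL23 reporter cells (5000/well, plated overnight) preincubated 0.5 h with compound, then stimulated 24 h at 37°C with rhIL23 at 1 ng/mL final. Supernatant read with Quanti-Blue after 1 h (absorbance 620-655 nm); inhibition normalised to DMSO and unstimulated controls, IC50 from four-parameter fit.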

The target in series [3] is (Homo sapiens, UniProt Q5VWK5). The series can be described thus: IL-23-stimulated pSTAT3 detection assay in PBMCs (ELISA). The class given is cell-based. Particulars: rhIL23 stimulation 30 minutes, read-out: pSTAT3 inhibition/IC50. The protocol: 3. IL-23-stimulated pSTAT3 detection assay in PBMCs
Cryopreserved human PBMCs were thawed, and seeded onto a plate previously covered with an anti-CD3 antibody at 1 × 10^6 cells/well. Then, an anti-CD28 antibody was added to the plate, and the cells were incubated at 37°C with 5% CO2 for 5 days. On Day 5, the cells were seeded onto a 96-well plate at a density of 100K cells/well after 4 hours of stimulation by FBS starvation. The diluted Compound was transferred into the 96-well cell culture plate, and the plate was incubated at 37°C with 5% CO2 for 1 hour. rhIL23 (R&D, 1290-IL) was added to the cell culture plate, and the plate was incubated at 37°C with 5% CO2 for 30 minutes. The cells in the wells were lysed on ice with a lysis buffer containing 1× PHOSstop solution for 30 minutes, and the plate was centrifuged at 1000 rpm for 1 minute. Then, the supernatant was transferred into a 96-well ELISA plate, and pSTAT3 ELISA assay was performed according to the instructions of the kit (CST, 7300CA). Absorbance values at […] were read on PHERAstar FSX (BMG LRBTECH). The inhibition rate of the compounds was assessed using the following formula, and IC50 values were obtained by fitting with Graphpad.
Calculation formula of inhibition rate: [formula] • where Data negative: mean of DMSO control group; and • Data positive: mean of non-IL23-stimulated group
The calculation formula of IC50 was as follows: Y = Bottom + (Top−Bottom)/(1+10^(∧)((LogIC50−X)*HillSlope)) [formula] • where X: concentration of compound; and • Y: inhibition rate of compound. Table 3. pSTAT3 inhibition

The nature of series [4]: Pharmacokinetic test in mice (intravenous and intragastric, plasma LC-MS/MS). The format is in vivo. The conditions noted are these: male, mouse, Balb/c mice. As for the experimental part:
4. Pharmacokinetic test in mice
4.1. Experimental animals: Male Balb/c mice (20-25 g, 18 mice/compound) were purchased from Chengdu Dossy Experimental Animals Co., Ltd.
4.2. Experimental design: On the day of the experiment, the Balb/c mice were randomly grouped by body weight. The animals were fasted with water available for 12-14 h one day before the administration, and were fed 4 h after the administration. Table 4. Administration information
Before and after administration, 0.06 mL of blood was taken from the orbit under isoflurane anaesthesia, and placed in an EDTAK2 centrifuge tube. The tube was centrifuged at 5000 rpm at 4°C for 10 min, and plasma was collected. The blood collection time points for the intravenous group and intragastric group were both 0 min, 5 min, 15 min, 30 min, 1 h, 2 h, 4 h, 6 h, 8 h, and 24 h. Before analysis and detection, all samples were stored at -80°C, and the samples were quantitatively analysed by LC-MS/MS. Table 5. Pharmacokinetic parameters of test compounds in mouse plasma

Positions of bridges follow the written chain, without caps; N, C: chain ends. Non-standard residues stand in square brackets, D forms with d. Residues, ends and D or L forms follow the SMILES beside them. Phe(4-OC2H4NH2,2,3-(CH2)3) = NCCOc1ccc(C[C@H](N)C(=O)O)c2c1CCC2; Trp(7-Me) = Cc1cccc2c(C[C@H](N)C(=O)O)c[nH]c12; 2Nal = N[C@@H](Cc1ccc2ccccc2c1)C(=O)O; 3Pal = N[C@@H](Cc1cccnc1)C(=O)O; Pen = CC(C)(S)[C@H](N)C(=O)O; Thp = NC1(C(=O)O)CCOCC1; Sar = CNCC(=O)O Where only a bound is given, the exact number is not on record here.

Sequence of (Homo sapiens, UniProt Q5VWK5) (Q9NPF7 20-189 partner, other chains not shown): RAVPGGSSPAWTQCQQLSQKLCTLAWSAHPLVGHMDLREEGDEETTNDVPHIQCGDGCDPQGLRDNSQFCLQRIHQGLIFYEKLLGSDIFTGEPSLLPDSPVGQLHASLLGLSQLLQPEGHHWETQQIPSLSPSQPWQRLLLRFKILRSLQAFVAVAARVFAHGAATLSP
Sequence of (Homo sapiens, UniProt Q5VWK5) (P29460 23-328 partner, other chains not shown): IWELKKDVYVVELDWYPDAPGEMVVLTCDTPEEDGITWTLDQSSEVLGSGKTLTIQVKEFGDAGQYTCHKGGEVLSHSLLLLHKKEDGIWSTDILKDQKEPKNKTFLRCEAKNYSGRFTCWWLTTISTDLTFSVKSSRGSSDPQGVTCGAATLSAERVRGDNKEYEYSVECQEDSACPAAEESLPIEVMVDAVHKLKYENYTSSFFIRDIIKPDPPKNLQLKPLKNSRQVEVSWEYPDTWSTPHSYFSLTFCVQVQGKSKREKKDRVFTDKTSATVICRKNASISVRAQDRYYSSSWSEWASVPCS

For `CC(=O)NCCCC[C@@H]1NC(=O)[C@H](Cc2c[nH]c3c(C)cccc23)NC(=O)[C@H]([C@@H](C)O)NC(=O)[C@H](Cc2c[nH]cn2)NC(=O)[C@@H](NC(C)=O)C(C)(C)SSC(C)(C)[C@@H](C(=O)N[C@@H](Cc2ccc(OCCN)c3c2CCC3)C(=O)N[C@@H](Cc2ccc3ccccc3c2)C(=O)NC2(C(=O)N[C@@H](CCC(=O)O)C(=O)N[C@@H](CC(N)=O)C(=O)N[C@@H](Cc3cccnc3)C(=O)N(C)CC(N)=O)CCOCC2)NC1=O` [Compound 7] (Ac-[Pen]HT[Trp(7-Me)]K(Ac)[Pen][Phe(4-OC2H4NH2,2,3-(CH2)3)][2Nal][Thp]EN[3Pal][Sar]-NH2; disulfide 1-6), the remaining at 6 h, 1000 ng/mL in series [1] was > 99%. For the same compound, the IC50 in series [2] worked out at 6.38 nM. Further, the IC50 in series [3] amounted to 0.0014 nM. Further, in series [4] (iv, i.v. (1 mg/kg)), the area under the curve AUC(0-t) was 4720 ± 512 ng·h/mL and the clearance turned out to be 3.52 ± 0.38 mL/min/kg. Also, the Vd in series [4] (iv, i.v. (1 mg/kg), read-out: Vdss) is 0.261 ± 0.01 L/kg. In series [4] (po, i.g. (10 mg/kg)), this compound returned an AUC(0-t) of 227 ± 100 ng·h/mL and a bioavailability of 0.482 ± 0.21%.
